Measurements taken from US9932410B2, “Human neutralizing anti-kit antibodies and uses thereof” (INSERM (Institut National de la Sante et de la Recherche …, priority 2013, dated 2018).
“Also recorded” adds a separate entry of the source. Blank lines part the entries; values can stand above or below the molecule they belong to.

Columns and labels:
[1] = tested on: HMC1.1 (KITV560G) cells; assay: Proliferation assay (MTS cell viability) on HMC1.1 cells; assay type: cell-based, human
Description: FIG. 5: Antibody modulation of oncogenic KIT. (A) HMC1.1 or HMC1.2 cells were incubated in IMDM 1% serum in the presence of anti-KIT antibodies or control antibody as indicated at 5 μg/mL (light grey) or 50 μg/mL (medium grey) or without antibody (dark grey). Cell viability is expressed in % compared to non treated cells. HMC1.1 or HMC1.2 cells were incubated in IMDM 10% serum in the presence of anti-KIT antibodies or control antibody (10 μg/mL) for 1, 2 or 24 hrs. As indicated and analyzed (B) by FACS using 104D2 anti-KIT antibody or (C) by western blot using anti-KIT and phospho-specific anti-KIT antibodies. (D) Three days treatment with anti-KIT antibodies maintained a low level of KIT on both mastocytoma cell lines.
UT-7 were seeded at 10^4 cells/well and treated for 4 days with 2D1, 3G1, H7 or Bot irrelevant antibody at 5 or 50 μg/mL […] in the presence of EPO or CHO-KL supernatant diluted 500 times. HMC1.1 and 1.2 were treated the same but for 7 days and with 1% SVF instead of 10% and without cytokines. Cell viability was estimated with MTS assay (PROMEGA) as recommended by the manufacturer.

[2] = tested on: HMC1.2 (KIT V560G D816V) cells; assay: Proliferation assay (MTS cell viability) on HMC1.2 cells
[3] = molecular target: T1, KIT surface level on UT-7/EPO cells (wild type KIT) (Homo sapiens, UniProt P10721); assay: Internalization assay: KIT surface level by FACS with 104D2 on UT-7/EPO cells; assay type: cell-based
T1 construct: endogenous in cells; host or cells: UT-7/EPO human erythroleukemic cells

[4] = molecular target: T2, biotinylated KIT-ECD (Homo sapiens, UniProt P10721); assay: Affinity measurement using yeast display of scFv with biotinylated KIT-ECD; assay type: binding; conditions: scFv displayed on yeast; for Kd: affinity matured variants, read-out: intrinsic Kd
T2 construct: KIT-ECD, amino acid 26 to 509, P10721 UniProtKB/Swiss-Prot; 6His (C); biotin (label); made in house; host or cells: insect cells (High Five, baculovirus)
Source text: Cells were then put on ice, washed with ice cold FACS buffer and bound antigen was detected with Streptavin conjugated to PE.

T2 sequence (P10721 26-509): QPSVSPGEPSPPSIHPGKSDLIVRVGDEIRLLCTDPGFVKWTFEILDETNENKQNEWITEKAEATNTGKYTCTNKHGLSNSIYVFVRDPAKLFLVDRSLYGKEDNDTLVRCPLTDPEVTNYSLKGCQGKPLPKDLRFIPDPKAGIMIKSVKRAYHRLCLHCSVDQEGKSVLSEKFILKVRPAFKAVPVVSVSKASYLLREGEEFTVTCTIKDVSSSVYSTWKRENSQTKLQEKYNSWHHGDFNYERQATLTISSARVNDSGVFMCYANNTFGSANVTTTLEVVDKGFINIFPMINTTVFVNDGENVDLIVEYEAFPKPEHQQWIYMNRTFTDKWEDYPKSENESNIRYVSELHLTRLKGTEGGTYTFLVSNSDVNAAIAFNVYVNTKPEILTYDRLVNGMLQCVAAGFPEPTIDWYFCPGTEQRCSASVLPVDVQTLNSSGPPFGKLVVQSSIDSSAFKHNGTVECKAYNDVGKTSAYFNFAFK
T1 sequence (P10721 26-976): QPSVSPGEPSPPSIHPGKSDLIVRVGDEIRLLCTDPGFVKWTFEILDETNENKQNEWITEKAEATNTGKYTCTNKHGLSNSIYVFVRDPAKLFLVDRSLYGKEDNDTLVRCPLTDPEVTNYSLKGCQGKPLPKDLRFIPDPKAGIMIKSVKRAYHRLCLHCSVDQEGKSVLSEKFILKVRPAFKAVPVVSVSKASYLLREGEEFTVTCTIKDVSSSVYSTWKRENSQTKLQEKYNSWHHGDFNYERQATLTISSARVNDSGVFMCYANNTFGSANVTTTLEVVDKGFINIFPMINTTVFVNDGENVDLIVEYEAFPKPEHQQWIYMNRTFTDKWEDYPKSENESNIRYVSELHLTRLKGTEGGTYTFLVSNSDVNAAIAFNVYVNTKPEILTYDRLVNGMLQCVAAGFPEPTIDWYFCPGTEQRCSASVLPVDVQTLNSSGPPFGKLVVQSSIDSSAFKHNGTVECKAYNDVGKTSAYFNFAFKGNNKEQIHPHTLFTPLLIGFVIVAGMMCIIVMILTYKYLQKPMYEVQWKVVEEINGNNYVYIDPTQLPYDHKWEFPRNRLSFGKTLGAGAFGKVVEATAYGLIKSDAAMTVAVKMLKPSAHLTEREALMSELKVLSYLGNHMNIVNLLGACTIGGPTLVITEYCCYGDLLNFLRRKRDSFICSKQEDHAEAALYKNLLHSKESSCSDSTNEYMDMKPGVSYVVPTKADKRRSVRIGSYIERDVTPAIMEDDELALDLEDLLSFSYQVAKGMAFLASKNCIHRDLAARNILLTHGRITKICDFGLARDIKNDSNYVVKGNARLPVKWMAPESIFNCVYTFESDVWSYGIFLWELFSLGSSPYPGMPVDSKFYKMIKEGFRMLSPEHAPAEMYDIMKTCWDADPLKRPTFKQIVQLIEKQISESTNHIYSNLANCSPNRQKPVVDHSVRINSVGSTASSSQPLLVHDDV

Molecule: Cc1nc(Nc2ncc(C(=O)Nc3c(C)cccc3Cl)s2)cc(N2CCN(CCO)CC2)n1 [dasatinib, N-(2-chloro-6-methylphenyl)-2-[[6-[4-(2-hydroxyethyl)-1-piperazinyl]-2-methyl-4-pyrimidinyl]amino]-5-thiazole-carboxamide monohydrate]
- toxicity of TKI to HMC1.1 cells [1]: toxic to HMC1.1 cells
- toxicity of TKI to HMC1.2 cells [2]: toxic to HMC1.2 cells

Molecule: Cc1ccc(NC(=O)c2ccc(CN3CCN(C)CC3)cc2)cc1Nc1nccc(-c2cccnc2)n1 [imatinib, 4-[(4-methylpiperazin-1-yl)methyl]-N-(4-methyl-3-{[4-(pyridin-3-yl)pyrimidin-2-yl]amino}phenyl)benzamide]
- KIT surface levels, imatinib treatment alone ([3]; UT-7/EPO cells with EPO, Imatinib 1 μM, 4 hrs): decreased KIT surface levels; also recorded: reduced KIT level at the cell surface
- effect on SCF-induced KIT surface level decrease ([3]; UT-7/EPO cells, imatinib with SCF): inhibited SCF-induced KIT surface level decrease
- toxicity of TKI to HMC1.1 cells [1]: toxic to HMC1.1 cells
- toxicity of TKI to HMC1.2 cells [2]: resistance of the D816V mutant to imatinib

Results, then the molecule that gave them:

- concentration of Ag at which saturation is reached [4]: 10 nM
- Kd [4]: 4.2 nM
B1: 2D1-C7: affinity matured variant of 2D1, same VH (SEQ ID NO: 1), VL SEQ ID NO: 26 (antibody, V domains shown)
VH: MAQVKLQESGGGLVQPGGSLRLSCAASGFTFDSYAMSWVRQAPGKGLEWVSYITSSSSTIYYVDSVKGRFTISRDNAKNSLYLQMNSLRDEDTAVYYCARLRNSEGYWYFDLWGRGTLVTVSS
VL: SQSVLTQDPAVSVALGQTVRITCQGDSLRSYYASWYQQKPGQAPLLVMYGENIRPSGIPDRFSGSTSGNSASLTITGAQAEDEADYYCNSRDSSGNHLNWVFGGGTKLTVLG
modifications: Synthetic 2D1 VH chain; Synthetic 2D1-C7 VL chain

- concentration of Ag at which saturation is reached [4]: 10 nM
- Kd [4]: 1.7 nM
B2: 3G1-A2: affinity matured variant of 3G1, same VH (SEQ ID NO: 9), VL SEQ ID NO: 30 (antibody, V domains shown)
VH: MAQVQLVESWGGVAQPGRSLRLSCAASGFTFSSFAMHWVRQAPGKGLEWVAVTSYDGSNEYYADSVKGRFTISRDNSKNTLYLQMNSLRAEDTAVYYCAKAMVRGVTFGDLDYWGQGTLVTVSS
VL: SSELTQDPAVSVALGQTVRKTCQGDSLKSYYASWYQQKPGQAPVLVIYGENSRPSGIPDRFSGSSSGNTASLTITGAQAEDEADYYCCSRATGGYHRIFGGGTKLTVLG
modifications: Synthetic 3G1 VH chain; Synthetic 3G1-A2 VL chain
